Experimental data: patent US20070276037A1, “Cytoprotective Effects of Ethyl Pyruvate” (priority 2003, published 2007)

What was measured:
ischemic myocardium = assay: Myocardial ATP levels (luciferin/luciferase bioluminescence) in acute in vivo ischemia-reperfusion model; design: species or system rat; settings: n=5
[1] = system: left ventricular infarction; assay: Planimetric determination of left ventricular infarction size (TTC/Evans blue); type: in vivo, rat; settings: 30 minutes ischemia and 30 minutes reperfusion; n=15; mean ± SEM
myocardial function [2] = assay: Cardiac function over the course of induced ischemia and reperfusion, percentage of baseline (FIGS. 5-7); type: in vivo; settings: p<0.05
Description: In order to determine overall effects of ethyl pyruvate on cardiac function, a number of parameters were evaluated over the course of induced ischemia, and reperfusion, as a function of time.

[3] = system: ischemic and nonischemic myocardium; assay: Myocardial lipid peroxidation measurements after ischemia and reperfusion; type: in vivo, rat
myocardial function [4] = assay: Cardiac functional assessment following ischemia and reperfusion (pressure/volume conductance catheter, flow probe); type: in vivo, rat
[5] = 30 min ischemia / 30 min reperfusion, n=6, FIG. 2, mean ± SEM
[6] = after 30 min ischemia / 30 min reperfusion, n=15
[7] = following ischemia and reperfusion, n=15, mean ± SEM, FIG. 8

CCOC(=O)C(C)=O [ethyl pyruvate]
ATP level in ischemic region of heart (ischemic myocardium; 10 minutes after initiation of ischemia, 1.5 mL/kg iv bolus of 28 mmol/L ethyl pyruvate in Ringer's, mean ± SEM): 87.6 ± 29.2 nmol/g
ATP levels versus controls (ischemic myocardium; ischemic myocardium 10 minutes after initiation of ischemia, FIG. 1): Significantly higher levels of ATP
Left ventricular area at risk infarcted (infarction area/area at risk) [1]: 25.3%±1.5
dP/dtmax (contractility) as percentage of baseline, versus controls (myocardial function [2]; after 8 minutes of ischemia and throughout reperfusion, FIG. 6): significantly greater
Maximum left ventricular (LV) pressure as percentage of baseline, versus controls (myocardial function [2]; throughout ischemia and reperfusion, FIG. 5): significantly greater
Cardiac output as percentage of baseline, versus controls (myocardial function [2]; throughout ischemia and reperfusion, FIG. 7): significantly greater
Lipid peroxide level, ischemic myocardium [3, 5]: 63.8 ± 3.3 nmol/g
Lipid peroxide level, nonischemic myocardium [3, 5]: 42.3 ± 4.8 nmol/g
Lipid peroxide level, ischemic myocardium ([3]; n=5, FIG. 3, mean ± SEM): 70.4 ± 2.6 nmol/g
Lipid peroxidation in ischemic myocardium versus control hearts ([3]; n=6, FIG. 2): decreased the level of lipid peroxidation
Lipid peroxidation in remote nonischemic myocardium versus control ([3]; n=6, FIG. 2): equivalent
Myocardial function (end systolic pressure volume relationships) versus control animals (myocardial function [4]; FIG. 8): significantly improved myocardial function
Cardiac output (myocardial function [4]; [6]): 26.7 ± 0.9 mL/min
Ejection fraction (myocardial function [4]; [6]): 41.9 ± 3.8%
Heart rate (myocardial function [4]; [6]): 183 ± 9.5 bpm
Maximum dP/dt (myocardial function [4]; [6]): 3518 + 243 mm Hg/s
Maximum pressure (myocardial function [4]; [6]): 86.6 ± 2.9 mm Hg
Minimum dP/dt (myocardial function [4]; [6]): 2841 + 329 mm Hg/s
ESPVR slope (myocardial function [4]; [7]): 1.09±0.22
ESPVR x-axis intercept (x-int) (myocardial function [4]; [7]): 4.1±19.9
Composite ESPVR (myocardial function [4]; regression composite, n=15, FIG. 8): 1.08 (ESV-4.0B)
